Laboratory results reported in PubChem BioAssay AID248 (DTP/NCI, 2004).
Toxic doses and inconclusive results are not listed. Rule as the data show it: active = T/C of 150% or more; inactive = T/C below 125%.

Test system: L1210 leukemia ip in BDF1 mice, survival T/C
Test: NCI In Vivo Anticancer Drug Screen. Data for tumor model L1210 Leukemia (intraperitoneal) in B6D2F1 (BDF1) mice
Conditions: endpoint: mean survival time, higher = longer survival
In short: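 Tumor cells were implanted, animals were treated, and survival was followed. The result divides the treated measurement by the vehicle-control measurement.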

[1] = dose: 100.0 mg/kg/injection, schedule: Q01DX001 (ip), vehicle: Klucel (hydroxypropylcellulose) (HPC)
[2] = dose: 200.0 mg/kg/injection, schedule: Q01DX001 (ip), vehicle: Klucel (hydroxypropylcellulose) (HPC)
[3] = dose: 400.0 mg/kg/injection, schedule: Q01DX001 (ip), vehicle: Klucel (hydroxypropylcellulose) (HPC)
[4] = dose: 75.0 mg/kg/injection, schedule: Q01DX001 (ip), vehicle: saline
[5] = dose: 25.0 mg/kg/injection, schedule: Q01DX009 (ip), vehicle: saline with Tween-80
[6] = dose: 50.0 mg/kg/injection, schedule: Q01DX009 (ip), vehicle: saline with Tween-80
[7] = dose: 100.0 mg/kg/injection, schedule: Q01DX009 (ip), vehicle: saline with Tween-80
[8] = dose: 100.0 mg/kg/injection, schedule: Q04DX003 (ip), vehicle: saline with Tween-80
[9] = dose: 100.0 mg/kg/injection, schedule: Q04DX002 (ip), vehicle: Klucel (hydroxypropylcellulose) (HPC)
[10] = dose: 200.0 mg/kg/injection, schedule: Q04DX002 (ip), vehicle: Klucel (hydroxypropylcellulose) (HPC)
[11] = dose: 400.0 mg/kg/injection, schedule: Q04DX002 (ip), vehicle: Klucel (hydroxypropylcellulose) (HPC)
[12] = dose: 200.0 mg/kg/injection, schedule: Q04DX003 (ip), vehicle: saline with Tween-80
[13] = dose: 100.0 mg/kg/injection, schedule: Q04DX003 (ip), vehicle: saline
[14] = dose: 200.0 mg/kg/injection, schedule: Q04DX003 (ip), vehicle: saline
[15] = dose: 100.0 mg/kg/injection, schedule: Q01DX009 (ip), vehicle: Klucel (hydroxypropylcellulose) (HPC)
[16] = dose: 200.0 mg/kg/injection, schedule: Q01DX009 (ip), vehicle: Klucel (hydroxypropylcellulose) (HPC)
[17] = dose: 400.0 mg/kg/injection, schedule: Q04DX003 (ip), vehicle: saline
[18] = dose: 100.0 mg/kg/injection, schedule: Q04DX003 (ip), vehicle: Klucel (hydroxypropylcellulose) (HPC)
[19] = dose: 200.0 mg/kg/injection, schedule: Q04DX003 (ip), vehicle: Klucel (hydroxypropylcellulose) (HPC)
[20] = dose: 400.0 mg/kg/injection, schedule: Q01DX009 (ip), vehicle: Klucel (hydroxypropylcellulose) (HPC)
[21] = dose: 50.0 mg/kg/injection, schedule: Q01DX009 (ip), vehicle: Klucel (hydroxypropylcellulose) (HPC)
[22] = dose: 200.0 mg/kg/injection, schedule: Q01DX009 (ip), vehicle: saline with Tween-80
[23] = dose: 100.0 mg/kg/injection, schedule: Q01DX009 (ip), vehicle: saline
[24] = dose: 200.0 mg/kg/injection, schedule: Q01DX009 (ip), vehicle: saline

Measured: T/C

CCOC(=O)Nc1cc(N)c([N+](=O)[O-])c(NC(c2ccccc2)c2ccccc2)n1
inactive: dose: 100.0 mg/kg/injection, schedule: Q01DX001 (ip), vehicle: carboxymethylcellulose (CMC) 95 % of control | dose: 200.0 mg/kg/injection, schedule: Q01DX001 (ip), vehicle: carboxymethylcellulose (CMC) 87 % of control | dose: 400.0 mg/kg/injection, schedule: Q01DX001 (ip), vehicle: carboxymethylcellulose (CMC) 92 % of control

NC(=O)Cc1cccc(=O)[nH]1
inactive: [1] 100 % of control | [2] 97 % of control | [3] 95 % of control

COc1cc2c(cc1OC)C1(CCBr)C3CC4C(=CCOC5CC(=O)N2C1C54)CN3C(=O)Cc1ccccc1 (stereo not given)
inactive: [4] 107 % of control

CCC(=O)c1ccc(OCC(O)CN2CCC(O)(c3ccccc3)CC2)cc1 (stereo not given)
inactive: [5] 98 % of control | dose: 25.0 mg/kg/injection, schedule: Q04DX003 (ip), vehicle: saline with Tween-80 97 % of control | [6] 89 % of control | dose: 50.0 mg/kg/injection, schedule: Q04DX003 (ip), vehicle: saline with Tween-80 105 % of control | [7] 95 % of control | [8] 100 % of control

COc1ccc(NC(C)=O)cc1
inactive: [1] 107 % of control | [2] 100 % of control | [3] 103 % of control

FC(F)(F)c1cccc(NC(=S)NNC(=S)NNc2ccccc2)c1
inactive: [9] 101 % of control | [10] 101 % of control | [11] 101 % of control

CCN(C(=O)Nc1ccc(Cl)cc1)c1ccccc1C
inactive: [8] 91 % of control | [12] 93 % of control

Nc1nc(Br)cs1
inactive: [13] 102 % of control | [14] 102 % of control

CN(C)S(=O)(=O)c1ccc(NC(=O)C(Cl)(Cl)Cl)cc1
inactive: dose: 100.0 mg/kg/injection, schedule: Q01DX001 (ip), vehicle: other 104 % of control | [15] 94 % of control | dose: 100.0 mg/kg/injection, schedule: Q04DX003 (ip), vehicle: other 101 % of control | dose: 200.0 mg/kg/injection, schedule: Q01DX001 (ip), vehicle: other 96 % of control | [16] 92 % of control | dose: 200.0 mg/kg/injection, schedule: Q04DX003 (ip), vehicle: other 95 % of control | dose: 400.0 mg/kg/injection, schedule: Q01DX001 (ip), vehicle: other 98 % of control | dose: 400.0 mg/kg/injection, schedule: Q04DX003 (ip), vehicle: other 93 % of control

OCC1C=CCC=C1
inactive: [13] 100 % of control | [14] 98 % of control | [17] 93 % of control

Cc1c2cnccc2c(C)c2c1c1ccccc1n2CCNCCO
inactive: dose: 6.25 mg/kg/injection, schedule: Q01DX009 (ip), vehicle: saline with Tween-80 97 % of control | dose: 12.5 mg/kg/injection, schedule: Q01DX009 (ip), vehicle: saline with Tween-80 122 % of control | [5] 113 % of control | dose: 100.0 mg/kg/injection, schedule: Q04DX003 (ip), vehicle: saline sonified 111 % of control | dose: 200.0 mg/kg/injection, schedule: Q04DX003 (ip), vehicle: saline sonified 103 % of control

Cc1ccc(NS(=O)(=O)c2ccc(F)cc2)cc1Cl
inactive: [15] 92 % of control | [18] 100 % of control | [16] 95 % of control | [19] 97 % of control | [20] 95 % of control | dose: 400.0 mg/kg/injection, schedule: Q04DX003 (ip), vehicle: Klucel (hydroxypropylcellulose) (HPC) 97 % of control

CC(C)(O)C#Cc1ccccc1
inactive: [21] 99 % of control | dose: 100.0 mg/kg/injection, schedule: Q01DX005 (ip), vehicle: Klucel (hydroxypropylcellulose) (HPC) 105 % of control | [15] 99 % of control | [9] 95 % of control | dose: 200.0 mg/kg/injection, schedule: Q01DX005 (ip), vehicle: Klucel (hydroxypropylcellulose) (HPC) 97 % of control | [16] 92 % of control | [10] 113 % of control | [11] 102 % of control

CCOC(=O)c1ccc(NC(=O)Nc2ccc(OC)c([N+](=O)[O-])c2)cc1
inactive: [7] 95 % of control | [22] 90 % of control

O=C(O)c1cccc(O)c1[N+](=O)[O-]
inactive: [13] 97 % of control | [14] 95 % of control | [17] 97 % of control

CCCCCCCCCCCCCCCCC/C(CC)=N/Nc1ccc([N+](=O)[O-])cc1[N+](=O)[O-]
inactive: [1] 104 % of control | [2] 106 % of control | [3] 97 % of control

CCN(CC)CCN(CC)CCN(CC)CC
inactive: [23] 94 % of control | [24] 115 % of control

COc1cc2c3cc1Oc1c(OC)c(OC)cc4c1C(Cc1ccc(OC(C)=O)c(c1)Oc1ccc(cc1)CC3N(C)CC2)N(C)CC4 (stereo not given)
inactive: [8] 108 % of control | [12] 101 % of control | dose: 400.0 mg/kg/injection, schedule: Q04DX003 (ip), vehicle: saline with Tween-80 103 % of control

c1ccc(C2SCc3ccc(cc3)Sc3ccc(cc3)CS2)cc1
inactive: dose: 100.0 mg/kg/injection, schedule: Q01DX001 (ip), vehicle: saline with Tween-80 91 % of control | dose: 200.0 mg/kg/injection, schedule: Q01DX001 (ip), vehicle: saline with Tween-80 88 % of control | dose: 400.0 mg/kg/injection, schedule: Q01DX001 (ip), vehicle: saline with Tween-80 91 % of control

O=C(N(CCc1ccc(O)cc1)Cc1ccc2c(c1)OCO2)C(F)(F)F
inactive: dose: 100.0 mg/kg/injection, schedule: Q04DX003 (ip), vehicle: gum acacia 91 % of control | dose: 200.0 mg/kg/injection, schedule: Q04DX003 (ip), vehicle: gum acacia 91 % of control | dose: 400.0 mg/kg/injection, schedule: Q04DX003 (ip), vehicle: gum acacia 88 % of control

O=C(c1ccccc1)C1NC1c1ccc([N+](=O)[O-])cc1 (stereo not given)
inactive: dose: 50.0 mg/kg/injection, schedule: Q01DX001 (ip), vehicle: Klucel (hydroxypropylcellulose) (HPC) 89 % of control | [1] 97 % of control | [2] 97 % of control | [3] 92 % of control

COC(=O)CCC#N
inactive: [23] 101 % of control | [24] 91 % of control | dose: 400.0 mg/kg/injection, schedule: Q01DX009 (ip), vehicle: saline 102 % of control

CCC1(/C=C/C(C)C)C(=O)NC(=O)NC1=O
inactive: [4] 105 % of control | dose: 150.0 mg/kg/injection, schedule: Q01DX001 (ip), vehicle: saline 93 % of control

CC(C)N(C(=O)COc1ccc(Cl)cc1)c1ccccc1
inactive: [21] 103 % of control | [15] 104 % of control | [18] 108 % of control | [16] 92 % of control | [19] 93 % of control

COc1cc(/C=C(/C#N)[N+](=O)[O-])ccc1O
inactive: dose: 3.12 mg/kg/injection, schedule: Q01DX009 (ip), vehicle: DMSO 93 % of control | dose: 6.25 mg/kg/injection, schedule: Q01DX009 (ip), vehicle: DMSO 91 % of control | dose: 12.5 mg/kg/injection, schedule: Q01DX009 (ip), vehicle: DMSO 94 % of control | dose: 12.5 mg/kg/injection, schedule: Q04DX003 (ip), vehicle: DMSO 102 % of control | dose: 25.0 mg/kg/injection, schedule: Q01DX009 (ip), vehicle: DMSO 89 % of control | dose: 25.0 mg/kg/injection, schedule: Q04DX003 (ip), vehicle: DMSO 114 % of control | dose: 50.0 mg/kg/injection, schedule: Q01DX009 (ip), vehicle: DMSO 93 % of control | dose: 50.0 mg/kg/injection, schedule: Q04DX003 (ip), vehicle: DMSO 101 % of control

CC(C)C1(O)C2C3CCC(C3)C2C(=O)C2C3CCC(C3)C21 (stereo not given)
inactive: [6] 96 % of control | [7] 93 % of control | [22] 93 % of control

Cc1cc2oc(/C=N/Nc3ccc([N+](=O)[O-])cc3[N+](=O)[O-])c(C)c2cc1C
inactive: [15] 94 % of control | [16] 94 % of control | [20] 89 % of control
